Source: ChEMBL document CHEMBL1142603, “Manzamine B and E and ircinal A related alkaloids from an Indonesian Acanthostrongylophora sponge and their activity against infectious, tropical parasitic, and Alzheimer's diseases” (J Nat Prod, 2006)
Values after ≈ are worked out from the molar mass of the structure shown. Active and inactive are the calls of the source. The calls are words filed in the database; no cut-off is given here.

Experiments:
[1] = tested on: Staphylococcus aureus; experiment: Antibacterial activity against Staphylococcus aureus; assay type: functional, organism-based
[2] = biological target: Beta-secretase 1 (Homo sapiens) (UniProt P56817); experiment: Inhibition of human recombinant BACE1 by FRET-based assay
[3] = biological target: T1, Acetylcholinesterase (Bos taurus) (UniProt P23795); experiment: Inhibition of bovine AChE
T1 sequence (whole entry): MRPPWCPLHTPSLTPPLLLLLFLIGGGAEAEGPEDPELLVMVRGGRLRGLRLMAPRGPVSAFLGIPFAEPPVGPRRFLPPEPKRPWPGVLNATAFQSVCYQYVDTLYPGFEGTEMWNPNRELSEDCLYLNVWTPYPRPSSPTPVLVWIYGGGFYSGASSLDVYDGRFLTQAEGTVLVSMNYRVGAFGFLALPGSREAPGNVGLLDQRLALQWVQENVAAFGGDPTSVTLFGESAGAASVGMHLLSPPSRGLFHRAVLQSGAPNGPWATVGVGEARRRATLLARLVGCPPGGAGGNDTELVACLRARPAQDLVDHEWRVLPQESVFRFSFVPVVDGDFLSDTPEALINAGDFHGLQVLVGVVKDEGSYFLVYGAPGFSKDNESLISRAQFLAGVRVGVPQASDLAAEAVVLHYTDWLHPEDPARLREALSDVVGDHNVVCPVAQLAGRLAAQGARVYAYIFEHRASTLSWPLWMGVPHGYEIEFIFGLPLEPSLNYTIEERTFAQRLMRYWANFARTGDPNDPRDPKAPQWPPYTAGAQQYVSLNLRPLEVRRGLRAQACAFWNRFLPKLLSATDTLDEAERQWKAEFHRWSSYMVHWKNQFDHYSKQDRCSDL

[4] = tested on: Plasmodium falciparum; experiment: Antimalarial activity after 72 hrs against chloroquine-sensitive Plasmodium falciparum D6 in erythrocytes at […] by LDH reporter assay; assay type: functional, organism-based
[5] = tested on: Vero; experiment: Cytotoxicity against african green monkey Vero cells at 4.76 ug/mL by neutral red assay; assay type: cell-based; conditions: chlorocebus sabaeus
[6] = tested on: Plasmodium falciparum; experiment: Antimalarial activity after 72 hrs against chloroquine-resistant Plasmodium falciparum W2 in erythrocytes at […] by LDH reporter assay; assay type: functional, organism-based
[7] = tested on: Staphylococcus aureus; experiment: Antibacterial activity against methicillin-resistant Staphylococcus aureus; assay type: functional, organism-based
[8] = tested on: Leishmania donovani; experiment: Antileishmanial activity against Leishmania donovani after 72 hrs by alamar blue assay; assay type: functional, organism-based
[9] = tested on: Cryptococcus neoformans; experiment: Antifungal activity against Cryptococcus neoformans; assay type: functional, organism-based
[10] = tested on: Mycobacterium intracellulare; experiment: Antibacterial activity against Mycobacterium intracellular by alamar blue assay; assay type: functional, organism-based
[11] = tested on: Plasmodium falciparum; experiment: Antimalarial activity after 72 hrs against chloroquine-resistant Plasmodium falciparum W2 in erythrocytes by LDH reporter assay; assay type: functional, organism-based; conditions: W2, 72 h
[12] = tested on: Mycobacterium tuberculosis; experiment: Antituberculosis activity against Mycobacterium tuberculosis H37Rv after 24 hrs by alamar blue assay; assay type: functional
[13] = tested on: Plasmodium falciparum; experiment: Antimalarial activity after 72 hrs against chloroquine-sensitive Plasmodium falciparum D6 in erythrocytes by LDH reporter assay; assay type: functional, organism-based; conditions: D6, 72 h
[14] = tested on: Vero; experiment: Cytotoxicity against african green monkey Vero cells by neutral red assay; assay type: cell-based; conditions: chlorocebus sabaeus
[15] = tested on: Leishmania donovani; experiment: Antileishmanial activity against Leishmania donovani at 40 ug/mL after 72 hrs by alamar blue assay; assay type: functional, organism-based
[16] = tested on: Human immunodeficiency virus 1; experiment: Antiviral activity against HIV1 3B assessed as reverse transcriptase activity by enzyme immunoassay; assay type: functional, organism-based; conditions: Human immunodeficiency virus 1, 3B
[17] = biological target: Glycogen synthase kinase-3 beta (Homo sapiens) (UniProt P49841); experiment: Inhibition of human recombinant GSK3-beta assessed as incorporation of [33P]gammaATP into G2S peptide at 25 uM
Glycogen synthase kinase-3 beta (Homo sapiens), sequence (P49841 whole entry, looked up): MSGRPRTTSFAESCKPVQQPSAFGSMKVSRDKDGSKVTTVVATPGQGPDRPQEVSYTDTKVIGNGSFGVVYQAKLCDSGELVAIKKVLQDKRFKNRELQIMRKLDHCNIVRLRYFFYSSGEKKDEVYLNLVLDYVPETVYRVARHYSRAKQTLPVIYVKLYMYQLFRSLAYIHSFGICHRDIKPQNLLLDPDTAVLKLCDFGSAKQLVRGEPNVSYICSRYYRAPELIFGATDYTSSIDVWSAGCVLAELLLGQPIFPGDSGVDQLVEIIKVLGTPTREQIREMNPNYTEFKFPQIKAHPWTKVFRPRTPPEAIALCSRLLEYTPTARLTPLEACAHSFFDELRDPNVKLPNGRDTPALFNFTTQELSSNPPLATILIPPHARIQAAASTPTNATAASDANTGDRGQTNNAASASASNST

Beta-secretase 1 (Homo sapiens), sequence (P56817 whole entry): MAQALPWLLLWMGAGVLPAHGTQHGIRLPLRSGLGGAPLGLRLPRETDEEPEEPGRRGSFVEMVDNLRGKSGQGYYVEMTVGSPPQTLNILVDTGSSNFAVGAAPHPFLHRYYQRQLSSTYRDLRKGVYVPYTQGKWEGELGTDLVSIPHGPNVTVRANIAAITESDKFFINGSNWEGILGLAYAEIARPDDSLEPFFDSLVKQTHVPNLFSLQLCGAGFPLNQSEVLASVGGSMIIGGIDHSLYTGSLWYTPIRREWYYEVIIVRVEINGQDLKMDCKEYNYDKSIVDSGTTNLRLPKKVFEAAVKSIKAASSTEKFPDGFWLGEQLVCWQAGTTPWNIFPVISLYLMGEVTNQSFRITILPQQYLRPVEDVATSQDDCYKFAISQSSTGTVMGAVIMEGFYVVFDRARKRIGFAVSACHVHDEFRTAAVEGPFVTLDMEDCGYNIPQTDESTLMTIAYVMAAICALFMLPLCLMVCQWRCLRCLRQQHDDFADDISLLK

Compound	Activity [1]	Activity [2]	Activity [3]	Activity [5]	Activity [7]	IC50 [8] [µg/mL]	IC90 [8] [µg/mL]	Activity [9]	IC50 [11] [µg/mL]	MIC [12] [µg/mL]	IC50 [13] [µg/mL]	other results
O=C1CC[C@H]2C[C@]34CN5CCCC/C=C\CC[C@@]6(C=C(c7nccc8c7[nH]c7ccccc78)[C@@H]3CC5)O[C@H](CC1)N2[C@H]46	inactive	inactive	inactive	Non-toxic	inactive	18 (≈ 32 µM)	40 (≈ 71.1 µM)	inactive	–	–	–	Activity [4]: inactive; Activity [6]: inactive; Activity [10]: inactive
O=C1CCCN2[C@@H](CC1)C[C@]13CN4CCCC/C=C\CC[C@](O)(C=C(c5nccc6c5[nH]c5ccc(O)cc56)[C@@H]1CC4)[C@H]23	–	inactive	inactive	Non-toxic	–	2.5 (≈ 4.3 µM)	4.3 (≈ 7.4 µM)	–	0.87 (≈ 1.5 µM)	0.4 (≈ 0.689 µM)	0.78 (≈ 1.34 µM)	IC50 [14]: 4.3 µg/mL (≈ 7.4 µM); IC50 [9]: 5.5 µg/mL (≈ 9.47 µM); IC50 [10]: 3.5 µg/mL (≈ 6.03 µM)
O=C1CCCN2[C@@H]3[C@@]45CN6CCCC/C=C\CC[C@@]3(C=C(c3nccc7c3[nH]c3ccc(O)cc37)[C@@H]4CC6)O[C@]2(CC1)C5	inactive	inactive	inactive	Non-toxic	inactive	–	–	inactive	–	–	–	Activity [4]: inactive; Activity [6]: inactive; Activity [15]: inactive; Activity [10]: inactive
O=C1CCCN2[C@H]3[C@]45CN6CCCC/C=C\CC[C@]3(C=C(c3nccc7c3[nH]c3c(O)cccc37)[C@H]4CC6)O[C@]2(CC1)C5	inactive	inactive	inactive	Non-toxic	inactive	–	–	inactive	1.1 (≈ 1.9 µM)	12.5 (≈ 21.6 µM)	0.84 (≈ 1.45 µM)	Activity [15]: inactive; IC50 [16]: 14.9 µg/mL (≈ 25.7 µM); Activity [10]: inactive
C1=C\CC[C@]23CN4CCCC/C=C\CC[C@@]5(O[C@H]5[C@@H](c5nccc6c5[nH]c5ccccc56)[C@@H]2CC4)[C@@H]3NCCCC/1	–	inactive	inactive	–	–	–	–	–	–	–	–	–
O=CC1=C[C@@]2(O)CC/C=C\CCCCN3CC[C@@H]1[C@]1(C[C@@H]4/C=C\CCCCN4[C@H]12)C3	–	–	–	–	–	–	–	–	–	–	–	inhibition [17]: 0%
O=CC1=C[C@]23CC/C=C\CCCCN4CC[C@@H]1[C@]1(C[C@@H]5/C=C\CCC[C@@H](O2)N5[C@H]13)C4	–	inactive	inactive	–	–	–	–	–	–	–	–	–
Oc1cccc2c1[nH]c1c([C@H]3[C@@H]4CCN5CCCC/C=C\CC[C@@]6(O[C@@H]36)[C@@H]3NCCCC/C=C\CC[C@@]34C5)nccc12	–	inactive	inactive	–	–	–	–	–	–	–	–	–
Oc1cccc2c3cc[nH]c(C4=C[C@]56CC/C=C\CCCCN7CC[C@@H]4[C@]4(C[C@@H]8/C=C\CCC[C@@H](O5)N8[C@H]46)C7)c-3nc12 [12,28-OXA-8-HYDROXY-MANZAMINE A]	inactive	inactive	inactive	Non-toxic	inactive	–	–	inactive	–	–	–	Activity [4]: inactive; Activity [6]: inactive; Activity [10]: inactive
C1=C(c2[nH]ccc3c4ccccc4nc2-3)[C@@H]2CCN3CCCC/C=C\CC[C@]14O[C@@H]1CCC/C=C\[C@H]5C[C@@]2(C3)[C@H]4N51 [12,28-OXAMANZAMINE A]	inactive	inactive	inactive	Non-toxic	inactive	7.8 (≈ 14.3 µM)	50 (≈ 91.4 µM)	inactive	–	–	–	Activity [4]: inactive; Activity [6]: inactive; IC50 [16]: 22.2 µg/mL (≈ 40.6 µM); Activity [10]: inactive
C[C@@H]1[C@H](O)[C@@H](C)/C=C/C=C/C=C/C=C/C=C/C=C/C=C/[C@H](O[C@@H]2O[C@H](C)[C@@H](O)[C@H](N)[C@@H]2O)C[C@@H]2O[C@](O)(C[C@@H](O)C[C@@H](O)[C@H](O)CC[C@@H](O)C[C@@H](O)CC(=O)O[C@H]1C)C[C@H](O)[C@H]2C(=O)O [AMPHOTERICIN B]	–	–	–	–	–	0.06 (≈ 0.0649 µM)	0.15 (≈ 0.162 µM)	–	–	–	–	IC50 [9]: 0.15 µg/mL (≈ 0.162 µM)
C[C@@H]1CC[C@H]2[C@@H](C)C(=O)O[C@@H]3O[C@@]4(C)CC[C@@H]1[C@]32OO4 [ARTEMISININ]	–	–	–	–	–	–	–	–	0.0063 (≈ 0.0223 µM)	–	0.01 (≈ 0.0354 µM)	–
O=C(O)c1cn(C2CC2)c2cc(N3CCNCC3)c(F)cc2c1=O [CIPROFLOXACIN]	–	–	–	–	–	–	–	–	–	–	–	IC50 [10]: 0.25 µg/mL (≈ 0.754 µM)
O=C1CCCN2[C@@H](CC1)C[C@]13CN4CCCC/C=C\CC[C@](O)(C=C(c5nccc6c5[nH]c5ccccc56)C1CC4)[C@H]23 (stereo partly drawn) [MANZAMINE E]	inactive	inactive	inactive	Non-toxic	inactive	3.8 (≈ 6.73 µM)	6.8 (≈ 12 µM)	inactive	4.76 (≈ 8.43 µM)	3.8 (≈ 6.73 µM)	3.4 (≈ 6.02 µM)	inhibition [17]: 53.6%; IC50 [16]: 13.1 µg/mL (≈ 23.2 µM); IC50 [10]: 12.5 µg/mL (≈ 22.1 µM)
O=C1CCCN2[C@@H](CC1)C[C@]13CN4CCCC/C=C\CC[C@](O)(C=C(c5nccc6c5[nH]c5c(O)cccc56)C1CC4)[C@H]23 (stereo partly drawn) [MANZAMINE F]	inactive	inactive	inactive	Non-toxic	inactive	4.2 (≈ 7.23 µM)	7 (≈ 12.1 µM)	–	1.7 (≈ 2.93 µM)	2.6 (≈ 4.48 µM)	0.78 (≈ 1.34 µM)	inhibition [17]: 29.9%; IC50 [16]: 7.3 µg/mL (≈ 12.6 µM); IC50 [9]: 6.5 µg/mL (≈ 11.2 µM); IC50 [10]: 6.25 µg/mL (≈ 10.8 µM)
Oc1ccc2[nH]c3c(C4=C[C@@]5(O)CC/C=C\CCCCN6CC[C@@H]4[C@]4(C[C@@H]7/C=C\CCCCN7[C@H]45)C6)nccc3c2c1 [MANZAMINE Y]	–	inactive	inactive	–	–	1.6 (≈ 2.83 µM)	8 (≈ 14.2 µM)	inactive	0.85 (≈ 1.51 µM)	5.2 (≈ 9.21 µM)	0.42 (≈ 0.744 µM)	IC50 [1]: 15 µg/mL (≈ 26.6 µM); IC50 [7]: 15 µg/mL (≈ 26.6 µM); IC50 [14]: 3.9 µg/mL (≈ 6.91 µM); inhibition [17]: 74.3%; IC50 [10]: 3.5 µg/mL (≈ 6.2 µM)
N=C(N)c1ccc(OCCCCCOc2ccc(C(=N)N)cc2)cc1 [PENTAMIDINE]	–	–	–	–	–	2.1 (≈ 6.17 µM)	10 (≈ 29.4 µM)	–	–	–	–	–
CO[C@H]1/C=C/O[C@@]2(C)Oc3c(C)c(O)c4c(O)c(c(/C=N/N5CCN(C)CC5)c(O)c4c3C2=O)NC(=O)/C(C)=C\C=C\[C@H](C)[C@H](O)[C@@H](C)[C@@H](O)[C@@H](C)[C@H](OC(C)=O)[C@@H]1C [RIFAMPIN]	–	–	–	–	–	–	–	–	–	0.5 (≈ 0.608 µM)	–	–
Cc1cn([C@H]2C[C@H](N=[N+]=[N-])[C@@H](CO)O2)c(=O)[nH]c1=O [ZIDOVUDINE]	–	–	–	–	–	–	–	–	–	–	–	IC50 [16]: 0.004 µg/mL (≈ 0.015 µM)
